{"source": "paper PMC10700596", "about": "(Nature Communications, 2023)", "key": {"mice [1]": {"system": "mice", "type": "in vivo", "details": "for CFA-induced allodynia, mechanical threshold (von Frey): individual animals"}, "GPR160": {"target": "GPR160 (Homo sapiens, UniProt Q9UJ42)", "sequence (Q9UJ42 whole entry)": "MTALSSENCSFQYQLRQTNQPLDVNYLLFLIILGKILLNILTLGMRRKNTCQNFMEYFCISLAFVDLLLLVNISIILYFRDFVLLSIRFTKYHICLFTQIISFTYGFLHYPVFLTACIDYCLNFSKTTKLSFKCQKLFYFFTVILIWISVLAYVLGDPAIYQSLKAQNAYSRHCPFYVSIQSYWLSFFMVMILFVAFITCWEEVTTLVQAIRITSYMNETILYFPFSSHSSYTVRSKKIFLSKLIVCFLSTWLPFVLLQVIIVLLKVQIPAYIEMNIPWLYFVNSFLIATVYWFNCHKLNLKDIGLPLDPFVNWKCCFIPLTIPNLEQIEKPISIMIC", "type": "cell-based", "experimental": "(§1) EP4R. e) EP4R functional cyclic AMP production assay. Dose-response curves were obtained for 74 (KB […]\n(§2) production assays for the prostaglandin D2 (PGD2) receptor or the Thromboxane A2 (TP) receptor, respectively. AZD1981 and Ramatroban were used as control PGD2 and TP receptor antagonists, respectively. U46619 served as a TP receptor agonist. H) GPCRome off-target screening of 74 at 10 µM. i) Potential off-targets that met the activity threshold (3-fold of increase of basal) in the GPCRome screen (GPR174, GPR160, or NMUR2) were investigated with full dose-response curves in PRESTO-Tango […]\n(§3) Data in a)-d), f)-g), i) represents mean ± SEM of three independent experiments. Data in e) represents two technical replicates. Data in h) represents mean ± SEM of four technical replicates. Source data are provided as a Source Data file.\n(§4) (1 picture or pasted object on this page, not shown here)"}, "GPR174": {"target": "GPR174 (Homo sapiens, UniProt Q9BXC1)", "type": "cell-based", "experimental": "as §1, §2, §3, §4"}, "NMUR2": {"target": "NMUR2 (Homo sapiens, UniProt Q9GZQ4)", "type": "cell-based", "experimental": "as §1, §2, §3, §4"}, "FLT3": {"target": "FLT3 (Homo sapiens, UniProt P36888)", "assay": "biochemical", "type": "binding", "details": "10000 nM; read-out: Percent Control"}, "ALK": {"target": "ALK (Homo sapiens, UniProt Q9UM73)", "sequence (Q9UM73 19-1620)": "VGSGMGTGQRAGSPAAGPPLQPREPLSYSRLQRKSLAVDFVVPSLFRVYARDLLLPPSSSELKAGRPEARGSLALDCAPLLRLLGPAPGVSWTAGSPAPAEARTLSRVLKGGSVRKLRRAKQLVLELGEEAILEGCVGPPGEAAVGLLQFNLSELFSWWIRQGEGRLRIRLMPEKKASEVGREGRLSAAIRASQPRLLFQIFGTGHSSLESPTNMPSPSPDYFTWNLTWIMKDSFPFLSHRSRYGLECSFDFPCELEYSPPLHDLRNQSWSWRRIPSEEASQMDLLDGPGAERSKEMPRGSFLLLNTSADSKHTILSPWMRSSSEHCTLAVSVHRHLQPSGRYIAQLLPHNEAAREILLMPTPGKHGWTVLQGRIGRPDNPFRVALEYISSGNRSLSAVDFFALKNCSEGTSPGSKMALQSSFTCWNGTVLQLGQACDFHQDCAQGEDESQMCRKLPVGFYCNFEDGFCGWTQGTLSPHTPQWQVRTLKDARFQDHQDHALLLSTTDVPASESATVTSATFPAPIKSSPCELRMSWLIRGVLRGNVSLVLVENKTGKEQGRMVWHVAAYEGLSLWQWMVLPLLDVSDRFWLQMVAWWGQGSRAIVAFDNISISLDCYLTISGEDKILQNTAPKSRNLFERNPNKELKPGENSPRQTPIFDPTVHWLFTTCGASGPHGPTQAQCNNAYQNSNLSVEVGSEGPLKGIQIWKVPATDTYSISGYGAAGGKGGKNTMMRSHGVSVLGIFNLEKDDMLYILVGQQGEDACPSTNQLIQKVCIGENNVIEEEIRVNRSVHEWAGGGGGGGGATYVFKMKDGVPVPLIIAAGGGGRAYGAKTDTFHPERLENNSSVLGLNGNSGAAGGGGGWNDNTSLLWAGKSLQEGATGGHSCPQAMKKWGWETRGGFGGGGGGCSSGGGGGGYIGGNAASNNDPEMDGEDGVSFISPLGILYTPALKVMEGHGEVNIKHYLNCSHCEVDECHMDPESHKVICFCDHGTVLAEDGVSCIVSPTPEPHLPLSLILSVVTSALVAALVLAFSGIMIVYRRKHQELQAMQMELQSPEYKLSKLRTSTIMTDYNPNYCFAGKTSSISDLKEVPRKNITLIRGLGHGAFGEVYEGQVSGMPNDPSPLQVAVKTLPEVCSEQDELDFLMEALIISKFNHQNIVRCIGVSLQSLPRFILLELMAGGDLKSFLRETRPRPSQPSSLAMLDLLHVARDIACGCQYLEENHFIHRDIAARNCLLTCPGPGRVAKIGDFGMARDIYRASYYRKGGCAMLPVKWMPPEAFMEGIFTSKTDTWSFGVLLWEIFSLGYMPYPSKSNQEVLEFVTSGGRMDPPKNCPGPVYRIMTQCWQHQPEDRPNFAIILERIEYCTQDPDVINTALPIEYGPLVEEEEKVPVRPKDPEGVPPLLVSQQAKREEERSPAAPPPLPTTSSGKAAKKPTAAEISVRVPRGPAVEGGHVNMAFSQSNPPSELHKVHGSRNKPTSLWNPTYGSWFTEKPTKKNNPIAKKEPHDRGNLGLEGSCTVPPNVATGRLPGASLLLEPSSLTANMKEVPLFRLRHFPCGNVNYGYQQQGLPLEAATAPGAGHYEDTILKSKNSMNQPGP", "assay": "biochemical", "type": "binding", "details": "10000 nM; read-out: Percent Control"}, "CSF1R": {"target": "CSF1R (Homo sapiens, UniProt P07333)", "assay": "biochemical", "type": "binding", "details": "10000 nM; read-out: Percent Control"}, "ERBB2": {"target": "ERBB2 (Homo sapiens, UniProt P04626)", "sequence (P04626 23-1255)": "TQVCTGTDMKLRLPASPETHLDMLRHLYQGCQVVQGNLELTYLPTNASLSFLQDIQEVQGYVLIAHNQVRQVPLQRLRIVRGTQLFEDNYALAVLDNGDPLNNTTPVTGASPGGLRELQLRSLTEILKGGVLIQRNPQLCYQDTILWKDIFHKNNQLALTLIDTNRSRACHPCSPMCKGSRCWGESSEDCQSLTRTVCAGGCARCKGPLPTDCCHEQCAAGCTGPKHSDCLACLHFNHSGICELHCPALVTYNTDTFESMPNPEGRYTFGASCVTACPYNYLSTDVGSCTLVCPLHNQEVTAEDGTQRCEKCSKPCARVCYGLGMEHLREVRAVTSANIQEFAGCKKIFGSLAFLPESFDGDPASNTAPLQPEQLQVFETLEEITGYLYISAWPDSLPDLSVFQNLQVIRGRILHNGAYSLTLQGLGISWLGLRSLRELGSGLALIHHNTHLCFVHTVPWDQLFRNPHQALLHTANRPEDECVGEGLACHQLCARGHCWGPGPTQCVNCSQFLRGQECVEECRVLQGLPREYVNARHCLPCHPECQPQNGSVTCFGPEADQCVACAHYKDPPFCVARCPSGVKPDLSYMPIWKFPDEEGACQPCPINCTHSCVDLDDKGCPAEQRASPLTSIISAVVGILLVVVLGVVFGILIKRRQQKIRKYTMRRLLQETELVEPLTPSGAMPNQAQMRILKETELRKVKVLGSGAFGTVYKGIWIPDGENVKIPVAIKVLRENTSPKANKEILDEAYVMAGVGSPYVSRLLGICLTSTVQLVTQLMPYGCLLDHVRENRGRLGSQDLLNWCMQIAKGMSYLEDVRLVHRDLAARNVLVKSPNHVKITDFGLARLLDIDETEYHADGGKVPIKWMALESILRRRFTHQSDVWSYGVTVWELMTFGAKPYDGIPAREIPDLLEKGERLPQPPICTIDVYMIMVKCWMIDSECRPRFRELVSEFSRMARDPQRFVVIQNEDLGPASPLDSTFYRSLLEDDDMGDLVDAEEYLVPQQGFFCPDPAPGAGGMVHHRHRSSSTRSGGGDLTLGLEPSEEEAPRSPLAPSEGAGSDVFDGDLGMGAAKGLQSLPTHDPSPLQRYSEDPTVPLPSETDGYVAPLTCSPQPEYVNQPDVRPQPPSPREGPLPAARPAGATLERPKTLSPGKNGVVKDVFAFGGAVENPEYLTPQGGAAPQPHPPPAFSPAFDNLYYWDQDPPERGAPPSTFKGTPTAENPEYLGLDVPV", "assay": "biochemical", "type": "binding", "details": "10000 nM; read-out: Percent Control"}, "ABL1-phosphorylated": {"target": "ABL1-phosphorylated (Homo sapiens, UniProt P00519)", "sequence (P00519 whole entry)": "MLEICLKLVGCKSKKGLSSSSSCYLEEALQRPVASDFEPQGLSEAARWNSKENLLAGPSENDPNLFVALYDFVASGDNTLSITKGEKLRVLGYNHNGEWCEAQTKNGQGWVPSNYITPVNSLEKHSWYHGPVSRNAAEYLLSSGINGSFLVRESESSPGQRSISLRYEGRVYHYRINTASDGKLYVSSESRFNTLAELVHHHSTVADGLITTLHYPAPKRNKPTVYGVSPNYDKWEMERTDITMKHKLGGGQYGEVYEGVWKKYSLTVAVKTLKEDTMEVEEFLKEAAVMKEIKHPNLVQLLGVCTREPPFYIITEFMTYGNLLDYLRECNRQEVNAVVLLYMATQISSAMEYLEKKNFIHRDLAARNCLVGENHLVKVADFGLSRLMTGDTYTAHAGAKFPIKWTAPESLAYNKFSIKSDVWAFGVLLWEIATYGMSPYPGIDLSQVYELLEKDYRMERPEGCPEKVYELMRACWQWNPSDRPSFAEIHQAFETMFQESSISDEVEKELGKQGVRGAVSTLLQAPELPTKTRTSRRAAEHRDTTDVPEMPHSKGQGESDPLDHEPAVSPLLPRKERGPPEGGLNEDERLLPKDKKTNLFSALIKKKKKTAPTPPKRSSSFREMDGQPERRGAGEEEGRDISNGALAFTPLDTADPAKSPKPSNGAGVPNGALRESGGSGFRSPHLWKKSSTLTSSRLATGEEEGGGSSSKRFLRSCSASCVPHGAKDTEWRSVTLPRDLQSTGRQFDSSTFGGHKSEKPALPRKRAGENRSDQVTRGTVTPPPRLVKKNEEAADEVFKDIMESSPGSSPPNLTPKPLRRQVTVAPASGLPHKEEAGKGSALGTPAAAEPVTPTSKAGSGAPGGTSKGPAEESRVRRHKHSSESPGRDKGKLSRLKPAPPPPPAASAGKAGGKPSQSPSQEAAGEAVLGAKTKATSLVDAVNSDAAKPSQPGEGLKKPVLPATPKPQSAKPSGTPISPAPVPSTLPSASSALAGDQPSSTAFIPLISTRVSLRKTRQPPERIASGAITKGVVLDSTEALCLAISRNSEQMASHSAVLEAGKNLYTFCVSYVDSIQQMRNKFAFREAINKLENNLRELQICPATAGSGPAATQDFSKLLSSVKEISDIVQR", "assay": "biochemical", "type": "binding", "details": "10000 nM; read-out: Percent Control"}, "[2]": {"target": "T1, JAK3(JH1domain-catalytic) (Homo sapiens, UniProt P52333)", "T1 construct": "JAK3(JH1domain-catalytic); purchased Eurofins DiscoverX KINOMEscan (scanEDGE, 97 kinases)", "T1 sequence (P52333 782-1124 limits assumed)": "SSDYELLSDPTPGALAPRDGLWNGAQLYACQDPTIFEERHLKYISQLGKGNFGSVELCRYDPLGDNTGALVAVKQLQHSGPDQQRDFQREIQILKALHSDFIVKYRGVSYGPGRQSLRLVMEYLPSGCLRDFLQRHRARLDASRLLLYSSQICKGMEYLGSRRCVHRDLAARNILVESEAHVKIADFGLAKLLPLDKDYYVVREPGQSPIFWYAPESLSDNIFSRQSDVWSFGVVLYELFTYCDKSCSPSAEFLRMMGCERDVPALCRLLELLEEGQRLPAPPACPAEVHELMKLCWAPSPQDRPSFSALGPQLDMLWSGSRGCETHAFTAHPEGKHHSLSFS", "assay": "KINOMEscan", "type": "binding"}, "[3]": {"target": "T2, TYK2(JH1domain-catalytic) (Homo sapiens, UniProt P29597)", "T2 construct": "TYK2(JH1domain-catalytic); purchased Eurofins DiscoverX KINOMEscan (scanEDGE, 97 kinases)", "T2 sequence (P29597 888-1187 limits assumed)": "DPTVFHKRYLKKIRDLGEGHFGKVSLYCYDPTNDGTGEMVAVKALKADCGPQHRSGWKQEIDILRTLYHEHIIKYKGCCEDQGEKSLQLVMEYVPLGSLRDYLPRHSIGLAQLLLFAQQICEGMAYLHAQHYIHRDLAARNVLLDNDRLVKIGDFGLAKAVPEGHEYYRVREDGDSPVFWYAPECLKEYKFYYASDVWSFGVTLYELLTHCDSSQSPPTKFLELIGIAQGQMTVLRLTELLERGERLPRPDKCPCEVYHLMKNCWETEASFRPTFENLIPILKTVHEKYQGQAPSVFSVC", "assay": "KINOMEscan", "type": "binding"}, "PIM1": {"target": "PIM1 (Homo sapiens, UniProt P11309)", "assay": "biochemical", "type": "binding", "details": "10000 nM; read-out: Percent Control", "text": ". […] This panel includes several adverse drug reaction receptors such as the serotonin receptor 5HT2b, M1 and M2 muscarinic receptors and adrenergic receptors. […]. page 7:\nSupplementary Figure 7: Non-GPCR off-target screening for 74. a)-e) Dose-response curves of 74 at […]\nproliferator-activated receptor gamma (PPARγ, Eurofins item G124). Data in a)-e) and g)-i) represent two technical replicates. Source data are provided as a Source Data file.\nas §4"}, "[4]": {"target": "T3, Thromboxane A2 (TP) receptor (Homo sapiens, UniProt P21731)", "T3 sequence (P21731 1-343)": "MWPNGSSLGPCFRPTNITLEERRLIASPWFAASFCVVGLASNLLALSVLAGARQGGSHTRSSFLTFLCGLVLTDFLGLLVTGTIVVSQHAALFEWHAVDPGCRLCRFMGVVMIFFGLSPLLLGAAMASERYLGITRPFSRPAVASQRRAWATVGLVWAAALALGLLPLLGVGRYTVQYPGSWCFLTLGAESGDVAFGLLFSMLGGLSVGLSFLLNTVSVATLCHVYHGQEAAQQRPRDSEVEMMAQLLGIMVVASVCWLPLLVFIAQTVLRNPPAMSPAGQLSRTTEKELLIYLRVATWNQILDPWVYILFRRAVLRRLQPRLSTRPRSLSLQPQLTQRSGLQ", "assay": "Functional cAMP production assay, TP receptor", "type": "cell-based"}, "JNK2": {"target": "JNK2 (Homo sapiens, UniProt P45984)", "sequence (P45984 whole entry)": "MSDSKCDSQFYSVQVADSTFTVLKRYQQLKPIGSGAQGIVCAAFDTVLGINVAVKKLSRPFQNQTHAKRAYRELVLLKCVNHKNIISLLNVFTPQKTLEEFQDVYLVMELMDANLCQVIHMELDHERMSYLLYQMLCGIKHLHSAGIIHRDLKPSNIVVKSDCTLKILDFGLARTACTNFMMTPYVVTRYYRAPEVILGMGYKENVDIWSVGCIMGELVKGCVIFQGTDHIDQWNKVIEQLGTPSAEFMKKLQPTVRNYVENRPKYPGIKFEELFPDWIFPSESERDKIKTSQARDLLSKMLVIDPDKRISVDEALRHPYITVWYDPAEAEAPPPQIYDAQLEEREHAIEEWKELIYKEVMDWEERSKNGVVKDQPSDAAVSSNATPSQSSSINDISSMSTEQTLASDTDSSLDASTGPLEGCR", "assay": "biochemical", "type": "binding", "details": "10000 nM; read-out: Percent Control"}, "mice [5]": {"system": "mice", "type": "in vivo", "experimental": "For all behavioral tests, the experimenter was always blind to treatment. Animals were habituated for 60 min in Plexiglas cylinders before testing. […] For 10 mg/kg doses, compounds were prepared in 2.5 mg/ml solutions of which 100 µL were administered to mice (average weight 25 g). For 30 mg/kg doses, 7.5 mg/ml solutions were prepared. […] Hindpaw mechanical thresholds were determined with von Frey filaments using the up-down method, 60 min after administration of the EP4R antagonists (i.p. or via oral gavage). For the ambulatory (rotarod) test, mice were first trained on an accelerating rotating rod, 3 times for 5 minutes, before testing with any compound. On the test day, latency to fall from the rod was measured 1 h after injection of the compound. The cutoff was 300 s. Statistical tests were performed with GraphPad Prism 9.0 (GraphPad Software Inc., San Diego)."}, "[6]": {"details": "10000 nM, read-out: Percent Control"}}, "note": "Where “and” joins values, the source holds several entries; their conditions need not be identical. Equal entries are not always repeated. Entries after “also recorded” stand apart in the source; their conditions may differ. Where two headings read alike, the source gives them in different places."}
{"smiles": "O=C(O)C1CCC2(CC1)CC(Nc1ncnc3[nH]c4c(F)cccc4c13)C2", "note": "(stereo not shown) [Compound 74, OC(=O)C1CCC2(CC(C2)NC=3N=CN=C4NC=5C(F)=CC=CC5C34)CC1]", "values": [{"measurement": "CFA-induced allodynia, mechanical threshold (von Frey)", "setting": "mice [1]; 10 mg/kg IP, day 3", "result": "31.5 and 39 and 36.3 and 64.2 and 20.2"}, {"measurement": "CFA-induced allodynia, mechanical threshold (von Frey)", "setting": "mice [1]; 30 mg/kg IP, day 4", "result": "35.4 and 28.1 and 62 and 31.3 and 22.9"}, {"measurement": "effect on CFA-induced mechanical allodynia", "setting": "mice [1]; 10 and 30 mg/kg i.p.", "result": "significantly decreased; also recorded: reduced"}, {"measurement": "activity in full dose-response", "setting": "GPR160", "result": "no activity"}, {"measurement": "activity in full dose-response", "setting": "GPR174", "result": "no activity"}, {"measurement": "activity in full dose-response", "setting": "NMUR2", "result": "no activity"}, {"measurement": "remaining activity at 10 µM", "setting": "FLT3", "result": 26, "unit": "%"}, {"measurement": "remaining activity at 10 µM", "setting": "ALK", "result": 14, "unit": "%"}, {"measurement": "remaining activity at 10 µM", "setting": "CSF1R", "result": 69, "unit": "%"}, {"measurement": "remaining activity at 10 µM", "setting": "ERBB2", "result": 49, "unit": "%"}, {"measurement": "remaining activity at 10 µM", "setting": "ABL1-phosphorylated", "result": 63, "unit": "%"}, {"measurement": "remaining binding at 10 µM", "setting": "[2]; [6]", "result": 0.25, "unit": "%"}, {"measurement": "Signal (qPCR)", "setting": "[2]; JAK3, [Compound] 0.0001 nM", "result": "1.3e-6 and 8.87e-7"}, {"measurement": "Signal (qPCR)", "setting": "[2]; JAK3, [Compound] 0.001 nM", "result": "1.24e-6 and 1.2e-6"}, {"measurement": "Signal (qPCR)", "setting": "[2]; JAK3, [Compound] 0.01 nM", "result": "1.37e-6 and 1.42e-6"}, {"measurement": "Signal (qPCR)", "setting": "[2]; JAK3, [Compound] 0.169 nM", "result": "1.07e-6 and 1.21e-6"}, {"measurement": "Signal (qPCR)", "setting": "[2]; JAK3, [Compound] 0.508 nM", "result": "1.06e-6 and 1.26e-6"}, {"measurement": "Signal (qPCR)", "setting": "[2]; JAK3, [Compound] 1.52 nM", "result": "1.19e-6 and 1.38e-6"}, {"measurement": "Signal (qPCR)", "setting": "[2]; JAK3, [Compound] 4.57 nM", "result": "1.36e-6 and 1.47e-6"}, {"measurement": "Signal (qPCR)", "setting": "[2]; JAK3, [Compound] 13.7 nM", "result": "1.11e-6 and 1.19e-6"}, {"measurement": "Signal (qPCR)", "setting": "[2]; JAK3, [Compound] 41.2 nM", "result": "1.18e-6 and 1.3e-6"}, {"measurement": "Signal (qPCR)", "setting": "[2]; JAK3, [Compound] 123 nM", "result": "1.07e-6 and 1.06e-6"}, {"measurement": "Signal (qPCR)", "setting": "[2]; JAK3, [Compound] 370 nM", "result": "8.09e-7 and 7.97e-7"}, {"measurement": "Signal (qPCR)", "setting": "[2]; JAK3, [Compound] 3330 nM", "result": "1.07e-7"}, {"measurement": "Signal (qPCR)", "setting": "[2]; JAK3, [Compound] 10000 nM", "result": "2.42e-8 and 3.31e-8"}, {"measurement": "remaining binding at 10 µM", "setting": "[3]; [6]", "result": 0, "unit": "%"}, {"measurement": "Signal (qPCR)", "setting": "[3]; TYK2, [Compound] 0.0001 nM", "result": "4e-6 and 3.91e-6"}, {"measurement": "Signal (qPCR)", "setting": "[3]; TYK2, [Compound] 0.01 nM", "result": "3.79e-6 and 3.64e-6"}, {"measurement": "Signal (qPCR)", "setting": "[3]; TYK2, [Compound] 0.169 nM", "result": "3.6e-6 and 3.79e-6"}, {"measurement": "Signal (qPCR)", "setting": "[3]; TYK2, [Compound] 0.508 nM", "result": "4.38e-6 and 4.26e-6"}, {"measurement": "Signal (qPCR)", "setting": "[3]; TYK2, [Compound] 1.52 nM", "result": "4.63e-6 and 4.29e-6"}, {"measurement": "Signal (qPCR)", "setting": "[3]; TYK2, [Compound] 13.7 nM", "result": "3.86e-6 and 3.5e-6"}, {"measurement": "Signal (qPCR)", "setting": "[3]; TYK2, [Compound] 41.2 nM", "result": "4.1e-6 and 3.94e-6"}, {"measurement": "Signal (qPCR)", "setting": "[3]; TYK2, [Compound] 123 nM", "result": "2.97e-6 and 3.29e-6"}, {"measurement": "Signal (qPCR)", "setting": "[3]; TYK2, [Compound] 370 nM", "result": "2.73e-6 and 2.71e-6"}, {"measurement": "Signal (qPCR)", "setting": "[3]; TYK2, [Compound] 3330 nM", "result": "6.46e-7 and 5.93e-7"}, {"measurement": "Signal (qPCR)", "setting": "[3]; TYK2, [Compound] 10000 nM", "result": "1.74e-7 and 2.08e-7"}, {"measurement": "remaining activity at 10 µM", "setting": "PIM1", "result": 72, "unit": "%"}, {"measurement": "off-target activity at thromboxane A2 receptor", "setting": "[4]", "result": "no off-target activities"}, {"measurement": "remaining activity at 10 µM", "setting": "JNK2", "result": 41, "unit": "%"}]}
{"smiles": "O=C([O-])C1CCC2(CC1)CC(Nc1ncnc3[nH]c4c(F)cccc4c13)C2.[Na+]", "note": "(stereo not shown) [Compound 77, [Na+].[O-]C(=O)C1CCC2(CC(C2)NC=3N=CN=C4NC=5C(F)=CC=CC5C34)CC1]", "values": [{"measurement": "Rotarod latency to fall", "setting": "mice [5]; 30 mg/kg IP, 1 h after injection, cutoff 300 s, individual animals", "result": "300 s and 281 s and 295 s and 269 s"}, {"measurement": "motor impairment in the rotarod test", "setting": "mice [5]; mouse, in vivo", "result": "did not induce motor impairment"}, {"measurement": "Uninjured mice, individual animal values (Supplementary Figure 10A)", "setting": "mice [5]; uninjured mice, IP 30 mg/kg, single animals, 30 mg/kg", "result": "116 and 71.5 and 93.5 and 86.1 and 110.4"}]}
